Columns and labels:
[1] = test system: A549 (epithelial-like lung cells); assay: Presto Blue viability assay, A549; assay type: cell-based; conditions: Homo sapiens, 8 h treatment, read-out: IC50 (concentration needed to inhibit cell viability by 50%)
Method: (§1) The biocompatibility of charged pi-conjugated compounds with mammalian cell lines was evaluated by studying the effects of different charged pi-conjugated compound concentrations on the viability of two mammalian cell lines: A549 (epithelial-like lung cells) and HEK293 (epithelial-like kidney cells). […] Dose-response curves were used to determine IC50 values, that is, the concentration of charged pi-conjugated compound needed to inhibit cell viability by 50%. […] The MIC of MRSA USA300 was used to calculate the therapeutic index. MRSA USA300 is a major contributor to community-associated MRSA infections, including skin and soft tissue infections, bacteraemia, endocarditis, bone and joint infections and nosocomial infections. […]
(§2) The biocompatibility of charged pi-conjugated compounds with mammalian cell lines was assessed by determining their impact on the mitochondrial activity of human alveolar basal epithelial adenocarcinoma cells (A549) and human embryonic kidney cells (HEK293T) cells, using the Presto Blue assay according to the manufacturer's protocol. […] After 8 h, Presto Blue cell viability reagent (Thermo Fisher Scientific, Waltham, MA, USA) was added to the cells, and after 2 h of incubation, fluorescence was measured using a microplate reader (BioTek Instruments Inc., Winooski, VT, USA). […] The therapeutic index was calculated from the ratio between IC50 and the MIC.

[2] = test system: MRSA USA300; assay: Therapeutic index calculation (IC50 of mammalian cell lines / MIC); conditions: ratio of average IC50 for A549 and HEK293 to MIC in MRSA USA300
Method: as §1, §2

[3] = test system: HEK293 (epithelial-like kidney cells); assay: Presto Blue viability assay, HEK293; assay type: cell-based, human; conditions: Homo sapiens, HEK293, 8 h, read-out: IC50 (concentration needed to inhibit cell viability by 50%)
Method: as §1, §2

[4] = test system: MRSA USA300; assay: In vivo anti-infective activity in G. mellonella infected with MRSA; parameters: species or system Galleria mellonella; conditions: 10-80 μM; vehicle-treated infected worms one day
Method: The in vivo anti-infective capacity of charged pi-conjugated compounds was evaluated in the invertebrate model G. mellonella infected with MRSA USA300. The survival curves shown in FIG. 21 illustrate the efficacy of two charged pi-conjugated compounds, BL 248 and BL 273, against MRSA USA300 infection in G. mellonella. With increasing concentrations of both molecules, there was a discernible improvement in survival compared with the vehicle-treated control group.
To evaluate the in vivo anti-infective activity of charged pi-conjugated compounds, MRSA USA300 was cultured overnight in tryptic soy broth and diluted to ~2×10^7 CFU mL^−1 in sterile phosphate-buffered saline based on OD600. Cohorts of five G. mellonella larvae (~300 mg each) were injected with 10 μL of the diluted bacterial suspension (2×10^5 […]) via the last left proleg, following larvae sterilization with 70% ethanol. One hour post-infection, the larvae were injected with increasing concentrations of charged pi-conjugated compounds or 1% DMSO (in PBS) as a negative control. Uninfected larvae were also used as controls. Larvae were incubated at 37° C., and survival was monitored afterward. Death was defined by complete melanization of the larval body and lack of movement in response to touch.

[5] = test system: Gram-positive strains; assay: MIC / MIC50 by broth microdilution in panel of Gram-positive strains; assay type: cell-based; conditions: MIC50 over all Gram-positive strains tested (Table 2)
Method: Antibacterial activity was assessed by determining the minimal inhibitory concentration (MIC) and the minimal bactericidal concentrations (MBC) and by monitoring time-dependent bacterial killing of exponentially growing cells. Bacterial cell suspensions (OD600≈0.02 in cation-adjusted Muller-Hinton Broth) were treated with increasing concentrations of the different molecules. The minimal inhibitory concentration (MIC) was defined as the minimal concentration of the molecule resulting in complete bacterial growth arrest. The minimal bactericidal concentration (MBC) was defined as the lowest concentration of the molecule that killed 99.9% of the inoculum. A molecule was determined to be bactericidal if the ratio of the MBC to the MIC was less than 4 to 6. […] In M. smegmatis, the antibacterial activity of charged pi-conjugated compounds was generally lower.
The MIC values for all Gram-positive strains tested (Table 2) were used to calculate the MIC50, i.e., the minimum inhibitory concentration needed to inhibit the growth of 50% of the tested isolates (FIG. 5A). […] When the average MIC50 values were evaluated, the most susceptible bacterial genera were Streptococcus sp., followed by Staphylococcus sp. In contrast, Propionibacterium sp. had the highest average MIC50 (FIG. 5B).
The broth microdilution method was used to determine the MIC of charged pi-conjugated compounds according to the CLSI guidelines. Charged pi-conjugated compound stock solutions (16 mM) were prepared in dimethyl sulfoxide (DMSO). Serial twofold dilutions of the charged pi-conjugated compounds were freshly prepared using the appropriate liquid media (Table 2), and 100 μL of each dilution was added to the appropriate wells of 96-well microtiter plates. The bacterial inoculum was further diluted in liquid media, and 100 μL was added to each well, resulting in a final cell density of ≈5×10^5 CFU mL^−1. […] A molecule was determined to be bactericidal if the ratio of the MBC to the MIC was less than 4 to 6. […]

[6] = test system: HEMa (normal melanocytes); assay: Toxicity on A375 melanoma versus normal melanocytes (HEMa arm); assay type: cell-based; conditions: for safety for normal skin melanocyte cells (HEMa): 1 μM concentration
Method: (§3) FIG. 32 provides evidence of toxicity of charged pi-conjugated compounds on HEMa (normal melanocytes) versus on A375 melanoma using 1 day of incubation versus 2 days of incubation. BL-204, BL-141-2, BL-304 are aminocyanines. In contrast, TS-1-32 and GL-261-2 are two names for a carboxycyanine compound shown as GL-261-2 in FIG. 23.
This characterization is accurate for long exposures (~24 h) and in 200,000 cells/mL. The limits of toxic concentration (referenced herein as a therapeutic window) can vary with the exposure time and total cell number present in the test. For example, 1 μM concentration of charged pi-conjugated compounds are safe when used at 30 min exposure in the cell culture at 200,000 cells/mL. However, about higher than 2 μM cyanine becomes toxic (~8 μM) even at short exposure time (~30 min) for 200,000 cells/mL. In contrast, for a solid tumor this lethal concentration is expected to be higher since hundreds of millions of cells are contained in a small solid tumor. The dose may be calibrated and normalized by the total number of cells. The correct therapeutic window to kill cancer cells should be expressed in μg of charged pi-conjugated compound per 1 million of cells or ug of charged pi-conjugated compound per gram of cells. […] Therefore, the presently disclosed charged pi-conjugated compounds may be useful in a clinical application in patients where the charged pi-conjugated compounds could protect the normal tissue and selectively cause toxicity to cancer cells.

[7] = Crystal violet cytotoxicity test in A375 cells without light activation; assay type: cell-based, human; conditions: human
Method: The inhibitory concentration of charged pi-conjugated compounds needed to inhibit the cell growth by 50% (toxicity IC50).
Most of the charged pi-conjugated compounds are aminocyanines which are functionalized with alkyl amine group. The charged pi-conjugated compounds were added to cell cultures of A375 cancer cells (human melanoma) and their cytotoxicity was quantified by the crystal violet test and/or clonogenic assays for cell viability. […] The longer the exposure the most cytotoxic the charged pi-conjugated compounds are towards A375 cells. […] The same behavior is observed: the longer the exposure, the more cytotoxic. All molecules presented here are aminocyanines except GL-261-2 which is a carboxyl-cyanine. […] This was the first time a therapeutic window of concentration that can be tuned to selectively kill cancer and/or protect cells was suspected. In finding this therapeutic window concentration and time of exposure are important variables that should be fine tuned.
Based on the finding described above, a larger set of charged pi-conjugated compounds was evaluated for cytotoxicity against A375 cancer cells as shown in FIG. 25 and FIG. 26.
The IC50 is the concentration needed to inhibit the cell viability by 50%. These molecules in FIG. 25 and FIG. 26 were evaluated by crystal violet assay and using 2 days of exposure.

[8] = test system: A375 melanoma; assay: Toxicity on A375 melanoma versus normal melanocytes (A375 arm); assay type: cell-based, human; conditions: 1 μM concentration
Method: as §3
This characterization is accurate for long exposures (~24 h) and in 200,000 cells/mL. The limits of toxic concentration (referenced herein as a therapeutic window) can vary with the exposure time and total cell number present in the test. For example, 1 μM concentration of charged pi-conjugated compounds are safe when used at 30 min exposure in the cell culture at 200,000 cells/mL. However, about higher than 2 μM cyanine becomes toxic (~8 μM) even at short exposure time (~30 min) for 200,000 cells/mL. In contrast, for a solid tumor this lethal concentration is expected to be higher since hundreds of millions of cells are contained in a small solid tumor. The dose may be calibrated and normalized by the total number of cells. The correct therapeutic window to kill cancer cells should be expressed in μg of charged pi-conjugated compound per 1 million of cells or ug of charged pi-conjugated compound per gram of cells. […]

[9] = Clonogenic assay cytotoxicity in A375 cells without light; assay type: cell-based, human; conditions: human
Method: FIGS. 28A-28B provide a summary of the evidence of the cytotoxicity of charged pi-conjugated compounds without light. Toxicity was measured using clonogenic assay with 7 hours of incubation (contact time between molecules and A375 cells) and 7 days for colony formation. (FIG. 28A) The lethal concentration of the cyanine molecules to kill 50% of the A375 cells (Tox LC50) without light activation. (FIG. 28B) Chemical structure of exemplary charged pi-conjugated compounds. On average, 300 cells equal to 300 colonies were seeded and analyzed for each data point.
Both properties were measured using clonogenic assay with 7 hours of incubation (contact time between molecules and A375 cells) and 7 days for colony formation. 300 cells were seeded and analyzed for each data point.
More cytotoxicity tests were conducted in some additional molecules and using clonogenic assay for cell viability (FIG. 28). A375 cells were exposed to charged pi-conjugated compounds for 7 hours, in contrast to the previously presented assays which were conducted with crystal violet assay and 2 days of exposure. The data points showing the cytotoxicity quantification for each individual molecule are presented in FIG. 29, with resulting IC50 values summarized in Table 4.

[10] = test system: S. aureus ATCC 25923; assay: Mutation frequency (rifampin-resistant colonies) on repeated treatment; assay type: cell-based, Staphylococcus aureus; conditions: frequency of rifampin-resistant colonies
Method: In addition, the mutation frequency (assessed as the frequency of rifampin-resistant colonies) of S. aureus ATCC 25923 subjected to repeated treatment with charged pi-conjugated compound or the conventional antibiotic ciprofloxacin was determined.
Mutation frequency was determined using rifampin resistance as a marker. The stored cells were revived overnight in LB broth and then plated on LB agar with and without rifampin (100 mg mL^−1) (Schaaff et al., 2002). The mutation frequency was calculated as the ratio of rifampin-resistant colonies to the total number of colonies.

| Compound | cell viability of normal skin melanocyte cells [6] | safety for normal skin melanocyte cells (HEMa) [6] | IC50 at 2 days [7] [nM] | selectivity for killing cancer cells (A375) [8] | IC50 at 7 h [9] [nM] | other results |
| --- | --- | --- | --- | --- | --- | --- |
| CN(C)C(=O)CN1c2ccc3ccccc3c2C(C)(C)C1/C=C/C1=CC(=C/C=C2/N(C)c3ccc4ccccc4c3C2(C)C)/CCC1.I (stereo not shown) [BL 248] | – | – | – | – | – | IC50 [1]: 14700 nM; therapeutic index [2]: 9.3 |
| CN(C)C(=O)CN1/C(=C/C=C2C=C(/C=C/C3=[N+](CC(=O)N(C)C)c4ccc5ccccc5c4C3(C)C)CCC/2)C(C)(C)c2c1ccc1ccccc21.[Br-] [BL 273, 3-(2-(dimethylamino)-2-oxoethyl)-2-((E)-2-((E)-3-((E)-2-(3-(2-(dimethylamino)-2-oxoethyl)-1,1-dimethyl-1,3-dihydro-2H-benzo[e]indol-2-ylidene)ethylidene)cyclohex-1-en-1-yl)vinyl)-1,1-dimethyl-1H-benzo[e]indol-3-ium] | – | – | – | – | – | IC50 [3]: 13700 nM; survival of infected worms [4]: three or more days; antibacterial activity according to MIC50 [5]: strongest antibacterial activity |
| CN(C)CCCCCC[N+]1=C(/C=C/C2=CC(=C/C=C3/N(C)c4ccc5ccccc5c4C3(C)C)/CCC2)C(C)(C)c2c1ccc1ccccc21.[I-] [BL-141-2, 3-(6-(dimethylamino)hexyl)-1,1-dimethyl-2-((E)-2-((E)-3-((E)-2-(1,1,3-trimethyl-1,3-dihydro-2H-benzo[e]indol-2-ylidene)ethylidene)cyclohex-1-en-1-yl)vinyl)-1H-benzo[e]indol-3-ium] | increased the cell viability | safe for normal skin melanocyte cells | 750 | selective to specifically kill cancer cells | 400 | – |
| CN(C)CC[N+]1=C(/C=C/C2=CC(=C/C=C3/N(C)c4ccc5ccccc5c4C3(C)C)/CCC2)C(C)(C)c2c1ccc1ccccc21.[I-] [BL-204, 3-(2-(dimethylamino)ethyl)-1,1-dimethyl-2-((E)-2-((E)-3-((E)-2-(1,1,3-trimethyl-1,3-dihydro-2/I-benzo[e]indol-2-ylidene)ethylidene)cyclohex-1-en-1-yl)vinyl)-1H-benzo[e]indol-3-ium] | increased the cell viability | safe for normal skin melanocyte cells | 600 | selective to specifically kill cancer cells | 220 | – |
| O=C(O)c1cn(C2CC2)c2cc(N3CCNCC3)c(F)cc2c1=O [ciprofloxacin] | – | – | – | – | – | mutation rate across treatment cycles [10]: marked increase across treatment cycles |

— patent US20260216134A1, “CHARGED PI-CONJUGATED MOLECULES FOR THE TREATMENT OF MICROBIAL INFECTIONS” (priority 2023, published 2026)
